Data published in ChEMBL document CHEMBL1147373, “Patagonicol: a diterpenoid from the Chinese soft coral Alcyonium patagonicum” (J Nat Prod, 1993).
Calls of active or inactive are those of the source. No cut-off for these calls is given here.

Legend:
[1] = test system: P388; experiment: Cytotoxicity against mouse P388 cells; assay type: functional, cell-based
[2] = test system: Candida albicans; experiment: Antifungal activity against Candida albicans; assay type: functional, organism-based

C=C1CC[C@H](C(C)C)[C@@H]2[C@H]1[C@H]1C[C@](C)(O)[C@@H](OCC)CC[C@@](C)(O)[C@@H]2O1
Activity [1]: inactive
Activity [2]: inactive
